In US4812465A, “Triazole derivatives for use as antimycotic agents” (CL Pharma Aktiengesellschaft, priority 1986, dated 1989):
Converted amounts (≈) assume the structure as drawn.

Tests used:
[1] = system: Absidia ramosa; experiment: In vitro determination of minimum inhibitory concentration (MIC), serial dilution; type: cell-based; settings: pH 6.0, 22° C., 14 days; for MIC: Lichtheimia ramosa, 336 h, pH 6, Absidia ramosa
Experimental: (§1) The antimycotic activities of the compounds were measured by in vitro determination of the minimum inhibitory concentration (MIC) for yeasts, molds and dermatophytes.
(§2) 6 dermatophytes, 2 yeasts and 4 molds were used for testing with fungi, as follows:
(§3) The minimum inhibitory concentration (MIC) was determined in serial dilution tests in test tubes. The volume of the liquid nutrient medium in each test tube was 4.5 ml.
(§4) The substances were dissolved in DMSO and diluted with sterile distilled water to 10 concentrations (100, 50, 25, 12.5, 6.25, 3.12, 1.56, 0.78, 0.39 and 0.19 μg/ml). 0.5 ml of each of these dilution steps was added to liquid nutrient medium. Thus, a constant concentration of solvent in all the nutrient media was ensured, irrespective of the active compound concentration.
(§5) A comparison solution which contained only the solvent in appropriate concentration was included when carrying out each of the tests.
(§6) The individual strains were maintained on Sabouraud/beerwort agar slants and, before they were used in a test, they underwent a passage on a modified Sabouraud liquid nutrient medium. The strains were then harvested, washed and converted into a suspension of McFaerland 3 in the case of yeasts and molds and of McFaerland 4-5 in the case of dermatophytes.
(§7) The amount of material inoculated (inoculum) was 100 μl/test tube (inoculated densities: yeasts about 10^3 /ml, molds about 10^4 /ml, dermatophytes about 10^4 /ml). The pH of the liquid nutrient medium was 6.0. After inoculation had taken place the fungi were incubated at 22° C. for 14 days.
(§8) The MIC was then determined. The concentration step at which growth was no longer visible on macroscopic inspection was used for the determination of the MIC. The comparison substance used was 1-(2-(2,4-dichlorophenyl)-2-(2,4-dichlorophenylmethoxy)ethyl)-1H-imidazole(compound A).

[2] = system: Aspergillus fumigatus; experiment: as above; type: cell-based; settings: 20160 min, pH 6
Experimental: as §1, §2, §3, §4, §5, §6, §7, §8

[3] = system: Candida albicans; experiment: as above; type: cell-based; settings: 336 h, pH 6, Candida albicans, pH 6.0, 22° C., 14 days, read-out: MIC C.alb
Experimental: as §1, §2, §3, §4, §5, §6, §7, §8

[4] = system: Candida tropicalis; experiment: as above; type: cell-based; settings: 336 h, pH 6, Candida tropicalis, pH 6.0, 22° C., 14 days, read-out: MIC C.trop
Experimental: as §1, §2, §3, §4, §5, §6, §7, §8

[5] = system: Epidermophyton floccosum; experiment: as above; type: cell-based; settings: pH 6.0, 22° C., 14 days; for MIC: 336 h, pH 6, Epidermophyton floccosum
Experimental: as §1, §2, §3, §4, §5, §6, §7, §8

[6] = system: Microsporum canis; experiment: as above; type: cell-based; settings: 336 h, pH 6, Microsporum canis, pH 6.0, 22° C., 14 days
Experimental: as §1, §2, §3, §4, §5, §6, §7, §8

[7] = system: Microsporum gypseum; experiment: as above; type: cell-based; settings: Nannizzia gypsea, 336 h, pH 6, Microsporum gypseum; pH 6.0, 22° C., 14 days; read-out: MIC Mi.gyp
Experimental: as §1, §2, §3, §4, §5, §6, §7, §8

[8] = system: Mucor mucedo minus; experiment: as above; type: cell-based; settings: pH 6.0, 22° C., 14 days; for MIC: Mucor mucedo, 336 h, pH 6, Mucor mucedo minus
Experimental: as §1, §2, §3, §4, §5, §6, §7, §8

[9] = system: Mucor mucedo plus; experiment: as above; type: cell-based; settings: pH 6.0, 22° C., 14 days; for MIC: Mucor mucedo, 336 h, pH 6, Mucor mucedo plus
Experimental: as §1, §2, §3, §4, §5, §6, §7, §8

[10] = system: Trichophyton mentagrophytes; experiment: as above; type: cell-based; settings: pH 6.0, 22° C., 14 days; for MIC: 336 h, pH 6, Trichophyton mentagrophytes
Experimental: as §1, §2, §3, §4, §5, §6, §7, §8

[11] = system: Trichophyton rubrum; experiment: as above; type: cell-based; settings: pH 6.0, 22° C., 14 days; for MIC: 336 h, pH 6, Trichophyton rubrum
Experimental: as §1, §2, §3, §4, §5, §6, §7, §8

[12] = system: Trichophyton verrucosum; experiment: as above; type: cell-based; settings: pH 6.0, 22° C., 14 days; for MIC: 336 h, pH 6, Trichophyton verrucosum
Experimental: as §1, §2, §3, §4, §5, §6, §7, §8

[13] = system: mice; experiment: Determination of the lethal dose on single oral administration; type: in vivo; settings: for LD100: oral, once
Experimental: (§9) Determination of the lethal dose of 1-(2-(2,4-dichlorophenyl)-2-(3-(4-chlorophenylthio)propylamino)ethyl)-1H-imidazole dihydrochloride (compound No. 96) in mice and rats on administration once.
(§10) In each case, oral doses of 0, 500, 1,000 and 3,000 mg/kg of body weight were administered to four groups of female and male animals.
(§11) (Control: double-distilled water)
(§12) The following clinical signs were observed.

[14] = system: rats; experiment: as above; type: in vivo; settings: for LD100: oral, once
Experimental: as §9, §10, §11, §12

[15] = Determination of the LD50 by i.v. administration; type: in vivo; settings: in vivo, iv
Experimental: (§13) Determination of the LD50 of 1-(2-(2,4-dichlorophenyl)-2-(3-(4-chlorophenylthio)propylamino)ethyl)-1H-imidazole dihydrochloride (compound No. 96) in mice and rats by i.v. administration. In each case, 0 (0.9% NaCl solution), 12.5, 25.0, 50.0 and 100 mg/kg of body weight were injected i.v. into 5 groups of female and male animals.
as §12

[16] = system: mice; experiment: Determination of the LD50 by i.v. administration; type: in vivo; settings: i.v. 12.5-100 mg/kg
Experimental: as §13, §12

[17] = system: rats; experiment: Determination of the LD50 by i.v. administration; type: in vivo; settings: i.v. 12.5-100 mg/kg
Experimental: as §13, §12

[18] = system: Salmonella typhimurium strains TA 1535, TA 1537, TA 1538, TA 98 and TA 100; experiment: Potential to cause gene mutations in Salmonella typhimurium; type: cell-based; settings: 3.3-1,000 μg/plate
Experimental: Compound No. 96 was investigated for its potential to cause gene mutations in five Salmonella typhimurium strains TA 1535, TA 1537, TA 1538, TA 98 and TA 100.
The following concentrations were tested, both with metabolic activator (S 9 mix) and without metabolic activator.

[19] = oral 0, 500, 1,000 and 3,000 mg/kg

Row | Structure (SMILES) | MIC [1] | MIC Asp.fu. [2] | MIC [3] | MIC [4] | MIC [5] | MIC [6] | MIC [7] | MIC [8] | MIC [9] | MIC [10] | MIC [11] | MIC [12] | also measured
1 | Cl.Cl.Clc1ccc(SCCCNC(Cn2ccnc2)c2ccc(Cl)cc2Cl)cc1 (centres unmarked) [Compound 96, 1-(2-(2,4-dichlorophenyl)-2-(3-(4-chlorophenylthio)propylamino)ethyl)-1H-imidazole dihydrochloride] | 1.56 µg/mL | 0,78 μg/ml | 0.39 µg/mL | 0.78 µg/mL | 0.19 µg/mL | 0.39 µg/mL | 0.39 µg/mL | 1.56 µg/mL | 1.56 µg/mL | 0.39 µg/mL | 0.19 µg/mL | 0.39 µg/mL | LD100 ([13]; female): > 1,000 mg/kg; LD100 ([13]; male): > 500 mg/kg; clinical signs [13, 19]: Inactivity, convulsions; LD100 ([14]; female): > 500 mg/kg; LD100 ([14]; male): > 1,000 mg/kg; clinical signs [14, 19]: Inactivity, ruffled fur, convulsions; LD50 ([15]; mouse, mice, female, range in parentheses): 84.1 mg/kg; LD50 ([15]; mouse, mice, male, range in parentheses): 42 mg/kg; LD50 ([15]; rat, rats, female, range in parentheses): 56.1 mg/kg; LD50 ([15]; rat, rats, male): 70.7 mg/kg; clinical signs [16]: Inactivity, necrotic tail; clinical signs [17]: Inactivity, necrotic tail, convulsions; mutagenic activity ([18]; with metabolic activator (S 9 mix)): No mutagenic activity whatever was observed; mutagenic activity ([18]; without metabolic activator): No mutagenic activity whatever was observed
2 | Clc1ccc(C(Cn2ccnc2)NCCCSc2ccc(Br)cc2)c(Cl)c1 (centres unmarked) [Compound 105] |  | 0,39 μg/ml | 3.12 µg/mL (≈ 6.43 µM) | 3.12 µg/mL (≈ 6.43 µM) |  | 0.78 µg/mL (≈ 1.61 µM) | 0.39 µg/mL (≈ 0.804 µM) |  |  |  |  |  | MIC Abs.ra. ([1]; Absidia ramosa): 12,5 μg/ml; MIC Ep.flo [5]: 0,10 μg/ml; MIC Mu.mu- ([8]; Mucor mucedo minus): 3,12 μg/ml; MIC Mu.mu+ ([9]; Mucor mucedo plus): 3,12 μg/ml; MIC Tri.me. [10]: 0,10 μg/ml; MIC Tri.ru. [11]: 0,10 μg/ml; MIC Tri.ve. [12]: 0,10 μg/ml
3 | Clc1ccc(C(Cn2ccnc2)NCCCSc2c(Cl)cccc2Cl)c(Cl)c1 (centres unmarked) [Compound 112] | 12.5 µg/mL (≈ 26.3 µM) | 12,5 μg/ml | 6.25 µg/mL (≈ 13.2 µM) | 6.25 µg/mL (≈ 13.2 µM) | 3.12 µg/mL (≈ 6.56 µM) | 12.5 µg/mL (≈ 26.3 µM) | 3.12 µg/mL (≈ 6.56 µM) | 12.5 µg/mL (≈ 26.3 µM) | 6.25 µg/mL | 3.12 µg/mL (≈ 6.56 µM) | 3.12 µg/mL (≈ 6.56 µM) | 3.12 µg/mL (≈ 6.56 µM) | 
4 | Clc1ccc(C(Cn2ccnc2)NCCCSc2ccc3ccccc3c2)c(Cl)c1 (centres unmarked) [Compound 114] | 6.25 µg/mL (≈ 13.7 µM) | 0,78 μg/ml | 3.12 µg/mL (≈ 6.84 µM) | 6.25 µg/mL (≈ 13.7 µM) | 3.12 µg/mL (≈ 6.84 µM) | 0.78 µg/mL (≈ 1.71 µM) | 3.12 µg/mL (≈ 6.84 µM) | 3.12 µg/mL (≈ 6.84 µM) | 6.25 µg/mL | 3.12 µg/mL (≈ 6.84 µM) | 1.56 µg/mL (≈ 3.42 µM) | 1.56 µg/mL (≈ 3.42 µM) | 
5 | Clc1ccc(OCCCCNC(Cn2cncn2)c2ccc(Cl)cc2Cl)cc1 (centres unmarked) [Compound 126] | 100 µg/mL (≈ 227 µM) | 25,0 μg/ml | 25 µg/mL (≈ 56.8 µM) | 12.5 µg/mL (≈ 28.4 µM) | 12.5 µg/mL (≈ 28.4 µM) | 25 µg/mL (≈ 56.8 µM) | 3.12 µg/mL (≈ 7.09 µM) | 25 µg/mL (≈ 56.8 µM) | 12.5 µg/mL | 50 µg/mL (≈ 114 µM) | 6.25 µg/mL (≈ 14.2 µM) | 3.12 µg/mL (≈ 7.09 µM) | 
6 | Clc1ccc(SCCCCCNC(Cn2ccnc2)c2ccc(Cl)cc2Cl)cc1 (centres unmarked) [Compound 132] | 6.25 µg/mL (≈ 13.3 µM) | 6,25 μg/ml | 6.25 µg/mL (≈ 13.3 µM) | 3.12 µg/mL (≈ 6.65 µM) | 0.78 µg/mL (≈ 1.66 µM) | 12.5 µg/mL (≈ 26.7 µM) | 3.12 µg/mL (≈ 6.65 µM) | 3.12 µg/mL (≈ 6.65 µM) | 0.78 µg/mL | 0.78 µg/mL (≈ 1.66 µM) | 3.12 µg/mL (≈ 6.65 µM) | 6.25 µg/mL (≈ 13.3 µM) | 
7 | Clc1ccc(SCCCNC(Cn2ccnc2)c2cccc3ccccc23)cc1 (centres unmarked) [Compound 139] | 3.12 µg/mL (≈ 7.39 µM) | 3,12 μg/ml | 3.12 µg/mL (≈ 7.39 µM) | 12.5 µg/mL (≈ 29.6 µM) | 3.12 µg/mL (≈ 7.39 µM) | 1.56 µg/mL (≈ 3.7 µM) | 1.56 µg/mL (≈ 3.7 µM) | 3.12 µg/mL (≈ 7.39 µM) | 3.12 µg/mL | 3.12 µg/mL (≈ 7.39 µM) | 1.56 µg/mL (≈ 3.7 µM) | 1.56 µg/mL (≈ 3.7 µM) | 
